Experimental data reported in patent publication US20070258961A1, “Cholesterol efflux and uses thereof” (priority 2002, published 2007).

Experiments:
[1] = tested on: CYP27; assay: CYP27 expression in transfected macrophages with demethylation agent; type: cell-based, mouse; conditions: 0.5 μM, CMV promoter silenced by methylation
Experimental: Red, in D, is the mitochondrial marker dye, green in C, is CYP27.
Macrophages were cultured and transfected the same as for the CHOP cells in Example 1 except that after transfection, 0.5 μM 5-azacytidine was included in all further incubations. […] Panels A and B in FIG. 11 are actually transfected cells, but not treated with 5-azacytidine.

[2] = tested on: CYP27; conditions: promoter studies; cited from earlier work

SMILES	effect on CYP27 expression in transfected macrophages [1]	regulation of CYP27 expression [2]
Nc1ncn([C@@H]2O[C@H](CO)[C@@H](O)[C@H]2O)c(=O)n1 [5-azacytidine]	expressed CYP27	
C[C@H](CCC(=O)O)[C@H]1CC[C@H]2[C@@H]3[C@H](O)C[C@@H]4C[C@H](O)CC[C@]4(C)[C@H]3C[C@H](O)[C@]12C [cholic acid]		downregulated
